Reference: PubChem BioAssay AID2060487 (Molecular Pharmacology Branch, DTP, NCI, 2025)
pIC50: −log10 of the molar value. “And” between values parts separate entries of the source, which are not always exact repeats. Identical values can stand only once. Values belong to the compound of their own block, whether it stands above or below them.

System: 997537-175-T-J1-PDC complex spheroid viability
Assay: Anticancer human tumor 997537-175-T-J1-PDC patient-derived colon adenocarcinoma cell line growth inhibition [GQUAD]
Conditions: for viability, T/C: stronger effect = lower value
Description: DNA G-quadruplex Stabilizer Agents in Combinations in Complex Spheroids
A high-throughput screen of multi-cell type tumor spheroids was designed to identify active combinations of DNA G-quadruplex stabilizer agents and targeted small molecules. Complex spheroids include a stromal component modeled by human endothelial cells (HUVEC) and fibroblasts modeled by human mesenchymal stem cells (MSCs). The concentration ranges selected for each drug and investigational agent were based upon clinically achievable concentrations if the clinical Cmax of the agent was known.
Compounds. The drugs and investigational agents: pidnarulex (CX-5461; NSC782164), APTO-253 (NSC789042), BRACO-19 (NSC847499), peposertib (NSC802822), ceralasertib (NSC780249), elimusertib (NSC800525), camonsertib (NSC841442), AZD-1390 (NSC803789), olaparib (NSC753686), talazoparib (NSC767125), ART-558 (NSC835418), sotorasib (NSC818433), MRTX-1133 (NSC836407), SN-38 (NSC673596), topotecan (NSC609699), etoposide (NSC141540), doxorubicin (NSC123127), gemcitabine (NSC613327), 5-fluorouracil (NSC19893), paclitaxel (NSC125973), vemurafenib (NSC761431), panobinostat (NSC761190), R-306465 (JNJ-16241199; NSC773264), adavosertib (NSC754352), TP-3654 (NSC805149), carboplatin (NSC241240), KSQ-4279 (NSC840948), and staurosporine (NSC755774) were obtained from the National Cancer Institute (NCI) Developmental Therapeutics Program Chemical Repository (34). The FDA-approved anticancer drug set is available from the NCI Developmental Therapeutics Program. […] The stock solutions were prepared in dimethyl sulfoxide (DMSO, Sigma-Aldrich, St. Louis, MO, cat. D2650) at 800-fold the tested concentration and stored at -70 degrees C prior to their use. All drugs and investigational agents were tested over a range starting from a high concentration at or near the clinical Cmax and decreasing in half-log increments. If the clinical Cmax for an agent had not been determined, the highest concentration tested was 10 microM.
2.3 Cell Culture. All cells were maintained in an incubator at 37 degrees C and 5% CO2 with 95% humidity. The PDC lines were cultured according to standard operating procedures established by the NCI PDMR. All PDCs were thawed and cultured in Matrigel-coated flasks prepared with a working solution of 1X Ham's F-12 nutrient mix, without supplementation (Invitrogen, cat. 11765054), 100 U/mL penicillin-streptomycin (Invitrogen, cat. 15140122), and 2.5% Matrigel (Corning Inc., cat. 354248) for the first three passages. The 857933-349-R-J2-PDC line was cultured in 6C/Colon 1B media, which includes advanced DMEM/F-12 (Thermo Fisher Scientific, cat. 12634028), 10 mM HEPES (Thermo Fisher Scientific, cat. 15630080), 1X GlutaMAX supplement (Thermo Fisher Scientific, cat. 35050061), 0.1 mg/mL primocin (InvivoGen, cat. ant-pm-2), 10% defined fetal bovine serum, heat inactivated (HyClone Laboratories Inc., cat. SH30070.03HI), 50% L-WRN conditioned media (ATCC, cat. CRL-3276), 1.25 mM N-Acetyl-L-cysteine (Sigma-Aldrich, cat. A9165), 10 mM nicotinamide (Sigma-Aldrich, cat. N0636), 1X B-27 supplement (Thermo Fisher Scientific, cat. 17504044), 1X N-2 supplement (Thermo Fisher Scientific, cat. 17502048), 10 microM Y-27632 dihydrochloride (Tocris Bioscience, cat. 1254), and 50 ng/mL human EGF recombinant protein (Thermo Fisher Scientific, cat. PHG0311). The 485176-168-R4-J1-PDC line was cultured in Panc media, which includes all 6C/Colon 1B media components plus 100 ng/mL human FGF-10 (Thermo Fisher Scientific, cat. 100-26), 500 nM SB-431542 (Selleckchem, cat. S1067), and gastrin (Tocris, cat. 3006).
[…]
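Also: spheroids exposed to the agents for 7 days.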
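For viability, T/C in this document: 100% = DMSO vehicle control viability.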

Structure (SMILES): COc1cc(C2c3cc4c(cc3C(OC3OC5COC(C)OC5C(O)C3O)C3COC(=O)C23)OCO4)cc(OC)c1O (stereo unspecified)
viability, T/C (compound 0.0316 µM): 109% and 95.5% and 112%
viability, T/C (compound 0.1 µM): 89.4% and 75.1% and 76.9%
viability, T/C (compound 0.316 µM): 77.2% and 92.8% and 91.9%
viability, T/C (compound 1 µM): 93.1% and 76.8% and 89%
viability, T/C (compound 3.16 µM): 82.3% and 81.8% and 82.2%
viability, T/C (compound 10 µM): 60.9% and 54.7% and 74.6%
pIC50 (curve of compound): < 5.00

Structure (SMILES): Nc1ccn(C2OC(CO)C(O)C2(F)F)c(=O)n1 (stereo unspecified)
viability, T/C (compound 0.0316 µM): 103% (2×) and 99.3%
viability, T/C (compound 0.1 µM): 92.3% and 96% and 108%
viability, T/C (compound 0.316 µM): 93.5% and 99.5% and 101%
viability, T/C (compound 1 µM): 91.9% and 64.2% and 92.5%
viability, T/C (compound 3.16 µM): 88.4% and 55.3% and 62%
viability, T/C (compound 10 µM): 85.4% and 64.9% and 84.9%
pIC50 (curve of compound): < 5.00

Structure (SMILES): O=c1[nH]cc(F)c(=O)[nH]1 + Cc1cnc(CNC(=O)c2c(=O)c3ccc(N4CCCN(C)CC4)nc3n3c2sc2ccccc23)cn1
pIC50 (curve of first compound, second compound 0.0316 µM): < 5.00
pIC50 (curve of first compound, second compound 0.1 µM): < 5.00
pIC50 (curve of first compound, second compound 0.316 µM): < 5.00
pIC50 (curve of first compound, second compound 1 µM): < 5.00
pIC50 (curve of first compound, second compound 3.16 µM): < 5.00
pIC50 (curve of first compound, second compound 10 µM): < 5.00
viability, T/C (second compound 0.0316 µM, first compound 0.0316 µM): 96.2%
viability, T/C (second compound 0.0316 µM, first compound 0.1 µM): 87.6%
viability, T/C (second compound 0.0316 µM, first compound 0.316 µM): 85.1%
viability, T/C (second compound 0.0316 µM, first compound 1 µM): 92.8%
viability, T/C (second compound 0.0316 µM, first compound 3.16 µM): 89.6%
viability, T/C (second compound 0.0316 µM, first compound 10 µM): 76.2%
viability, T/C (second compound 0.1 µM, first compound 0.0316 µM): 75.6%
viability, T/C (second compound 0.1 µM, first compound 0.1 µM): 82.8%
viability, T/C (second compound 0.1 µM, first compound 0.316 µM): 92.8%
viability, T/C (second compound 0.1 µM, first compound 1 µM): 82.8%
viability, T/C (second compound 0.1 µM, first compound 3.16 µM): 102%
viability, T/C (second compound 0.1 µM, first compound 10 µM): 83%
viability, T/C (second compound 0.316 µM, first compound 0.0316 µM): 75.9%
viability, T/C (second compound 0.316 µM, first compound 0.1 µM): 74.3%
viability, T/C (second compound 0.316 µM, first compound 0.316 µM): 84%
viability, T/C (second compound 0.316 µM, first compound 1 µM): 105%
viability, T/C (second compound 0.316 µM, first compound 3.16 µM): 110%
viability, T/C (second compound 0.316 µM, first compound 10 µM): 111%
viability, T/C (second compound 1 µM, first compound 0.0316 µM): 88.1%
viability, T/C (second compound 1 µM, first compound 0.1 µM): 70.1%
viability, T/C (second compound 1 µM, first compound 0.316 µM): 84.9%
viability, T/C (second compound 1 µM, first compound 1 µM): 109%
viability, T/C (second compound 1 µM, first compound 3.16 µM): 67.2%
viability, T/C (second compound 1 µM, first compound 10 µM): 82.6%
viability, T/C (second compound 3.16 µM, first compound 0.0316 µM): 78.4%
viability, T/C (second compound 3.16 µM, first compound 0.1 µM): 96.1%
viability, T/C (second compound 3.16 µM, first compound 0.316 µM): 87.8%
viability, T/C (second compound 3.16 µM, first compound 1 µM): 90.1%
viability, T/C (second compound 3.16 µM, first compound 3.16 µM): 82.7%
viability, T/C (second compound 3.16 µM, first compound 10 µM): 92.7%
viability, T/C (second compound 10 µM, first compound 0.0316 µM): 73.7%
viability, T/C (second compound 10 µM, first compound 0.1 µM): 95.3%
viability, T/C (second compound 10 µM, first compound 0.316 µM): 98.3%
viability, T/C (second compound 10 µM, first compound 1 µM): 75.2%
viability, T/C (second compound 10 µM, first compound 3.16 µM): 107%
viability, T/C (second compound 10 µM, first compound 10 µM): 90.6%

Continued, in another order:

pIC50 (curve of compound): < 5.00
Structure (SMILES): O=C(c1cc(Cc2n[nH]c(=O)c3ccccc23)ccc1F)N1CCN(C(=O)C2CC2)CC1
viability, T/C (compound 0.0316 µM): 106% and 94.3% and 90.2%
viability, T/C (compound 0.1 µM): 88% and 96.7% and 102%
viability, T/C (compound 0.316 µM): 94.6% and 102% and 107%
viability, T/C (compound 1 µM): 104% and 92.4% and 103%
viability, T/C (compound 3.16 µM): 102% and 64.4% and 79.6%
viability, T/C (compound 10 µM): 85.2% and 87.2% and 96.7%

pIC50 (curve of compound): 5.55 and 5.50 and 5.75
Structure (SMILES): CCCS(=O)(=O)Nc1ccc(F)c(C(=O)c2c[nH]c3ncc(-c4ccc(Cl)cc4)cc23)c1F
viability, T/C (compound 0.0316 µM): 98.4% and 98.6% and 86.2%
viability, T/C (compound 0.1 µM): 99.3% and 95.1% and 77.8%
viability, T/C (compound 0.316 µM): 97.4% and 68.8% and 65.1%
viability, T/C (compound 1 µM): 89.6% and 71.8% and 53%
viability, T/C (compound 3.16 µM): 45.4% and 56.1% and 52.3%
viability, T/C (compound 10 µM): 34.9% and 24.1% and 25%

pIC50 (curve of compound): < 5.00
Structure (SMILES): Cc1cccc(N(C)C(=O)C2C(O)CCN2c2nc(C)cc(C(F)(F)F)c2C#N)c1 (stereo unspecified)
viability, T/C (compound 0.0316 µM): 107% and 89.4% and 99.3%
viability, T/C (compound 0.1 µM): 97.1% and 94.8% and 91.9%
viability, T/C (compound 0.316 µM): 97% and 109% and 98%
viability, T/C (compound 1 µM): 88.5% and 83.3% and 100%
viability, T/C (compound 3.16 µM): 60.2% and 82.8% and 85.9%
viability, T/C (compound 10 µM): 89.4% and 74.4% and 90.4%

pIC50 (curve of compound): < 5.00
Structure (SMILES): COc1ccc([C@@H](O)c2cc(-c3ncnc4cc(N5CCOCC5)ccc34)c(F)cc2Cl)nn1
viability, T/C (compound 0.0316 µM): 92.9% and 91.3% and 86%
viability, T/C (compound 0.1 µM): 90.2% and 89.7% and 104%
viability, T/C (compound 0.316 µM): 94.4% and 88.5% and 89.3%
viability, T/C (compound 1 µM): 101% and 83.3% and 91.5%
viability, T/C (compound 3.16 µM): 82.6% and 73.8% and 58.5%
viability, T/C (compound 10 µM): 65.1% and 78.9% and 67.7%

pIC50 (curve of compound): < 5.00
Structure (SMILES): COc1ncnc(C2CC2)c1-c1ncc2cnn(Cc3ccc(-c4nc(C(F)(F)F)cn4C(C)C)cc3)c2n1
viability, T/C (compound 0.0316 µM): 108% and 102% and 88.2%
viability, T/C (compound 0.1 µM): 74.8% and 112% and 95%
viability, T/C (compound 0.316 µM): 108% and 90.8% and 83.2%
viability, T/C (compound 1 µM): 75.4% and 97.9% and 84.9%
viability, T/C (compound 3.16 µM): 82.6% and 103% and 75.4%
viability, T/C (compound 10 µM): 80.2% and 58% and 77.7%
